Broadly, the IC50 is the point on the concentration scale where inhibition reaches its midpoint.

Read-outs that look alike come from different tables or passages of the source.

For the assay, the target named is T1, HDM2 (Homo sapiens, UniProt Q00987).
T1 construct: Thioredoxin (N); made in house; host or cells: E. coli strain BL21(DE3)Rosetta
Nature of the assay: HDM2 FRET assay (inhibition of binding of FITC labeled p53-pocket peptide to HDM2). The note with it: read-out: FRET IC50. The procedure, abridged: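 Final: 0.5 nM His-HDM2, 3 nM FITC peptide, 0.25 nM Tb anti-His Ab; PBS, 0.01% BSA, 0.01% Tween-20; 0.1% DMSO.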

Where [1] appears, read: 0.5 nM HDM2 (residues 17 to 125), 3nM peptide, two hour incubation at room temperature.

T1 sequence (Q00987 17-125): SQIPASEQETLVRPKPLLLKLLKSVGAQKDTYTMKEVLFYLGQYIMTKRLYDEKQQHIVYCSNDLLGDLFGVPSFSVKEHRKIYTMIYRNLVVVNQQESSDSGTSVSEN

On to `C[C@@H](Nc1nc(-c2noc(=O)[nH]2)nc2nc(C3(c4ccncc4)CC3)n(C[C@H]3CC[C@H](C)CC3)c12)C1CCC1` [Example 22.53, 3-[6-{[(1R)-1-cyclobutylethyl]amino}-7-[(trans-4-methylcyclohexyl)methyl] -8-(1-pyridin-4-ylcyclopropyl)-7H-purin-2-yl]-1,2,4-oxadiazol-5(4H)-one], for which the IC50 (Table 22) amounted to 4.6 nM. On to `C[C@@H](Nc1nc(C(=O)O)nc2nc(NC(=O)C3CCCCC3)n(Cc3ccc(C(F)(F)F)cc3)c12)C1CCC1` [Example 9.43, 6-{[(1R)-1-cyclobutylethyl]amino}-8-[(cyclohexylcarbonyl)amino]-7-[4-(trifluoromethyl)benzyl]-7H-purine-2-carboxylic acid], for which the IC50 (Table 9) came out at 343 nM.

`CC(C)c1ccnc(-c2nc3nc(-c4noc(=O)[nH]4)nc(N[C@H](C)C4CCC4)c3n2C[C@H]2CC[C@H](C)CC2)c1F` [Example 15.7, 3-(6-((R)-1-cyclobutylethylamino)-8-(3-fluoro-4-isopropylpyridin-2-yl)-7-((trans-4-methylcyclohexyl)methyl)-7H-purin-2-yl)-1,2,4-oxadiazol-5(4H)-one]: the IC50 under setting [1] was determined as 5.13 nM. For `C[C@@H](Nc1nc(-c2noc(=O)[nH]2)nc2nc(C3(c4cccc(F)c4)CC3)n(C[C@H]3CC[C@H](C)CC3)c12)C1CCC1` [Example 22.49, 3-(6-{[(1R)-1-cyclobutylethyl]amino}-8-[1-(3-fluorophenyl)cyclopropyl] -7-[(trans-4-methylcyclohexyl)methyl] -7H-purin-2-yl)-1,2,4-oxadiazol-5(4H)-one], the IC50 (Table 22) amounted to 16.9 nM. Consider `CC(C)CC(=O)N(C)c1nc2nc(C(=O)O)nc(N[C@H](C)C3CCC3)c2n1Cc1ccc(C(F)(F)F)cc1` [Example 10.3, (R)-6-((1-cyclobutylethyl)amino)-8-(N,3-dimethylbutanamido)-7-(4-(trifluoromethyl)benzyl)-7H-purine-2-carboxylic acid], for which, under “Table 10”, the 50% inhibitory concentration (IC50) came to 69.8 nM. In the case of `COc1ncc(Cl)cc1-c1nc(-c2n[nH]c(=O)o2)nc2nc(N3CCOC[C@H]3c3ccccc3)n(C[C@H]3CC[C@H](C)CC3)c12` [Example 16.157, 5-{6-(5-chloro-2-methoxypyridin-3-yl)-7-[(trans-4-methylcyclohexyl)methyl]-8-[(3R)-3-phenylmorpholin-4-yl]-7H-purin-2-yl} - 1,3,4-oxadiazol-2(3H)-one], under setting [1], the IC50 came out at 0.882 nM. On to `COC1(c2nc3nc(-c4noc(=O)[nH]4)nc(-c4cncc(Cl)c4)c3n2C[C@H]2CC[C@H](C)CC2)CCC1` [Example 23.62, 3-{6-(5-chloropyridin-3-yl)-8-(1-methoxycyclobutyl)-7-[(trans-4-methylcyclohexyl)methyl] -7H-purin-2-yl}-1,2,4-oxadiazol-5(4H)-one], for which the IC50 (Table 23) was found to be 13.1 nM. Regarding `C[C@@H](Nc1nc(C(=O)O)nc2nc(N3CCCC3c3ccccc3)n(Cc3ccc(C(F)(F)F)cc3)c12)C1CCC1` (stereo partly drawn) [Example 9.52, 6-{[(1R)-1-cyclobutylethyl]amino}-8-(2-phenylpyrrolidin-1-yl)-7-[4-(trifluoromethyl)benzyl]-7H-purine-2-carboxylic acid], the IC50 (Table 9) came to 31.9 nM.

For the molecule `C[C@H]1CC[C@H](Cn2c(N3CCOC[C@H]3c3ccccc3)nc3nc(-c4noc(=O)[nH]4)nc(-c4cccc(Cl)c4)c32)CC1` [Example 16.18, 3-{6-(3-chlorophenyl)-7-[(trans-4-methylcyclohexyl)methyl]-8-[(3R)-3-phenylmorpholin-4-yl]-7H-purin-2-yl}-1,2,4-oxadiazol-5(4H)-one], the IC50 under setting [1] was 1.27 nM. Regarding `C[C@@H]1CN(C)C(=O)CN1c1nc2nc(-c3noc(=O)[nH]3)nc(N[C@H](C)C3CCC3)c2n1C[C@H]1CC[C@H](C)CC1` [Example 11.120, (5R)-4-[6-{[(1R)-1-cyclobutylethyl]amino}-7-[(trans-4-methylcyclohexyl)methyl]-2-(5-oxo-4,5-dihydro-1,2,4-oxadiazol-3-yl)-7H-purin-8-yl]-1,5-dimethylpiperazin-2-one], where the note is “Table 11”, the IC50 turned out to be 5.57 nM. On to `C[C@@H](Nc1nc(C(=O)O)nc2nc(N3CCOCC3)n(Cc3ccc(Cl)cc3)c12)C1CC1` [Example 9.9, 7-(4-chlorobenzyl)-6-{[(1R)-1-cyclopropylethyl]amino}-8-morpholin-4-yl-7H-purine-2-carboxylic acid], for which the IC50 (Table 9) worked out at 574 nM. Turning to `CC(C)c1ccnc(-c2nc3nc(-c4noc(=O)[nH]4)nc(N[C@H](C)C4CCC4)c3n2C[C@H]2CC[C@H](C(F)(F)F)CC2)c1` [Example 18.30, 3-(6-{[(1R)-1-cyclobutylethyl]amino}-8-[4-(1-methylethyl)pyridin-2-yl]-7-{[trans-4-(trifluoromethyl)cyclohexyl]methyl}-7H-purin-2-yl)-1,2,4-oxadiazol-5(4H)-one], the IC50 (Table 18) was 13 nM. As for `COC(c1ccccc1)c1nc2nc(-c3noc(=O)[nH]3)nc(N[C@H](C)C3CCC3)c2n1C[C@H]1CC[C@H](C)CC1` (single isomer, unassigned) [Example 22.20, 3-(6-{[(1R)-1-cyclobutylethyl]amino}-8-[(S or R)-methoxy(phenyl)methyl]-7-[(trans-4-methylcyclohexyl)methyl]-7H-purin-2-yl)-1,2,4-oxadiazol-5(4H)-one], the IC50 (Table 22) was 1.5 nM. In the case of `CC(C)CC1COCCN1c1nc2nc(C(=O)O)nc(N[C@H](C)C3CCC3)c2n1Cc1ccc(C(F)(F)F)cc1` (stereo partly drawn) [Example 9.66, 6-{[(1R)-1-cyclobutylethyl]amino}-8-[3-(2-methylpropyl)morpholin-4-yl]-7-[4-(trifluoromethyl)benzyl]-7H-purine-2-carboxylic acid], for the setting “Table 9”, the IC50 was 6.07 nM. For the molecule `Cc1cccc(-c2nc3nc(C(=O)O)nc(NC4CCC(CNC(=O)OC(C)(C)C)CC4)c3n2Cc2ccc(C(F)(F)F)cc2)c1` (stereo not drawn) [Example 6.35, 6-[(4-{[(tert-butoxycarbonyl)amino]methyl}cyclohexyl)amino]-8-(3-methylphenyl)-7-[4-(trifluoromethyl)benzyl]-7H-purine-2-carboxylic acid], the IC50 (Table 6) worked out at 2340 nM. `C[C@@H](Nc1nc(C(=O)O)nc2nc(C3=C(c4ccccc4)CCCC3)n(Cc3ccc(C(F)(F)F)cc3)c12)C1CCC1` [Example 21.3, 6-{[(1R)-1-cyclobutylethyl]amino}-8-(2-phenylcyclohex-1-en-1-yl)-7-[4-(trifluoromethyl)benzyl]-7H-purine-2-carboxylic acid]: for the setting “Table 21”, the IC50 came out at 5.82 nM. Take `C[C@@H](Nc1nc(-c2noc(=O)[nH]2)nc2nc(N(C)[C@@H]3CCCC[C@@H]3O)n(C[C@H]3CC[C@H](C)CC3)c12)C1CCC1` (stereo in doubt) [Example 11.134, 3-(6-{[(1R)-1-cyclobutylethyl]amino}-8-{[(1R,2S)-2-hydroxycyclohexyl] (methyl)amino}-7-[(trans-4-methylcyclohexyl)methyl]-7H-purin-2-yl)-1,2,4-oxadiazol-5(4H)-one]: under “Table 11”, the IC50 is 9.46 nM.

For the molecule `C[C@H]1CC[C@H](Cn2c(N3CCO[C@@H]4CCC[C@H]43)nc3nc(-c4noc(=O)[nH]4)nc(-c4cccc(Cl)c4)c32)CC1` [Example 16.82, 3-{6-(3-chlorophenyl)-8-[(4aR,7aR)-hexahydrocyclopenta [b][1,4]oxazin-4(4aH)-yl]-7-[(trans-4-methylcyclohexyl)methyl]-7H-purin-2-yl}-1,2,4-oxadiazol-5(4H)-one], the IC50 under setting [1] was 1.1 nM.
